Data from ChEMBL document CHEMBL1158307, “Hippospongins AF: New Furanoterpenes from a Southern Australian Marine Sponge Hippospongia sp” (J Nat Prod, 1996).
The source made the active and inactive calls. The calls are words filed in the database; no cut-off is given here.

Tested on: Staphylococcus aureus
Test: Antibacterial activity against Staphylococcus aureus at 200 ug/disk by standard agar plate assay
Type: functional, organism-based

CC(CCCc1coc(CC(C)C(=O)O)c1)Cc1cc(CCCc2ccoc2)co1 (stereo unspecified)
Activity: Active
